Results taken from US20200368193A1 (Concert Pharmaceuticals, Inc., priority 2017, published 2020).
Where two headings read alike, the source gives them in different places.

Columns and labels:
[1] = biological target: T1, human NMDAR subunits GluN1 and GluN2A (Homo sapiens, UniProt Q05586); test: NMDA receptor activation in automated patch clamp system (ScreenPatch); assay type: cell-based; conditions: HEK293 cells, 0.003 to 10 μM, Compound 100 versus d-serine
T1 construct: expressed in transfected cells; host or cells: HEK293
Experimental: Peak current and steady state current were measured. The activity at the NMDA receptor was indistinguishable for the two compounds.

Male Sprague-Dawley Rats [2] = test: Nephrotoxicity of Compound 100 and non-deuterated D-serine at 150 mg/kg PO (Example 3); assay type: in vivo
Description: (§1) The pharmacokinetic profile of Compound 100 was investigated in male Sprague-Dawley rats compared with that of non-deuterated D-serine. […] Plasma was collected and analyzed for Compound 100 and non-deuterated D-Serine. Additional blood was collected and analyzed for the full clinical chemistry profile.

[3] = Brain distribution of Compound 100 after a single 100 mg/kg PO dose (Example 10); assay type: in vivo, male Sprague-Dawley rats; conditions: male, Sprague-Dawley, rat, mean
Experimental: The distribution profile of Compound 100 was investigated in male Sprague-Dawley rats. […] At 24 hours after dosing, tissues from perfused brain and plasma were collected and analyzed by LC-MS.

[4] = Pharmacokinetics of deuterated and non-deuterated D-serine, PO 10 mg/kg (Example 5); assay type: in vivo, male Sprague Dawley rats; conditions: male, Sprague Dawley, rat, plasma, 0.5% Methylcellulose
Experimental: Three rats were used for each group. Blood was collected at the following time points: for IV dosing: pre-dose, 0.05, 0.167, 0.5, 1, 2, 4, 6, 8 and 12 hours post-dose; for PO dosing: pre-dose, 0.25, 0.5, 1, 2, 4, 6, 8 and 12 hours post-dose PO. Urine was collected at pre-dose (minimum 12 hours), 0-6, 6-12 and 12-24 hours. Plasma samples were analyzed and quantified for dosed compound LC-MS/MS.

[5] = Pharmacokinetic profile of Compound 100 and non-deuterated D-serine after 150 mg/kg PO doses (Example 3); assay type: in vivo, male Sprague-Dawley rats; conditions: for concentration at 4 h / concentration at 8 h / concentration at 24 h / AUC(0-inf) / Cmax / Tmax: male, Sprague-Dawley, rat; for concentration at 4 h / concentration at 8 h / concentration at 24 h: po
Description: as §1

rats = test: Nephrotoxicity comparison at doses from 150 mg/kg to 750 mg/kg (dose escalation, FIGS. 7-10); assay type: in vivo; conditions: for changes in BUN or creatinine: PO doses from 150 mg/kg to 750 mg/kg
[6] = Cortex versus plasma half-life of Compound 100 after 4 days of 100 mg/kg PO dosing (Example 11); assay type: in vivo, male Sprague-Dawley rats; conditions: male, Sprague-Dawley, rat, 100 mg/kg PO once per day for 4 days
Experimental: After 4 days, tissues from perfused brain and plasma were collected and analyzed by LC-MS at 24 hours (group 1), 72 hours (group 2) and 120 hours (group 3) after dosing.

[7] = Plasma, hippocampus and cortex concentration of Compound 100 after a 30 mg/kg PO dose (Example 1); assay type: in vivo, male Sprague Dawley rats; conditions: male, Sprague-Dawley, rat, mean
Experimental: The mean plasma, hippocampus, and cortex concentrations at 1 hour were 19200 ng/mL, 674 ng/g, and 754 ng/g, respectively. The mean plasma, hippocampus, and cortex concentrations at 6 hours were 1780 ng/mL, 1385 ng/g, and 936 ng/g, respectively.

[8] = Pharmacokinetics dose response of non-deuterated D-serine, 30-300 mg/kg PO (Example 4); assay type: in vivo, male Sprague-Dawley rats; conditions: plasma; for Cmax / AUC(0-inf): (CV %)
Description: (§2) The pharmacokinetic profile of non-deuterated D-serine was investigated in male Sprague-Dawley rats. […] Plasma was collected and analyzed for the non-deuterated D-serine. Additional blood was collected and analyzed for the full clinical chemistry profile.

Male Sprague-Dawley Rats [9] = test: Nephrotoxicity of non-deuterated D-serine at 300 mg/kg PO (Example 2); assay type: in vivo
Experimental: (§3) The hippocampus, cortex and plasma were collected and analyzed. Additional blood was collected and were analyzed for the full clinical chemistry profile. Urine was also collected and examined for glucose and total protein. […] The mean plasma, hippocampus, and cortex concentration at 1 hour are 19200 ng/mL, 674 ng/g, and 754 ng/g; respectively. The mean plasma, hippocampus, and cortex concentrations at 8 hours were 11250 ng/mL, 17725 ng/g, and 11875 ng/g, respectively. […] Blood urea nitrogen and creatinine levels were elevated.

Male Sprague-Dawley Rats [10] = test: Nephrotoxicity dose response of non-deuterated D-serine, 30-300 mg/kg PO (Example 4); assay type: in vivo; conditions: 24 hr samples at the 150 and 300 mg/kg doses, compared to control and reference values
Description: as §2

[11] = Pharmacokinetics of non-deuterated D-serine after a 300 mg/kg PO dose (Example 2); assay type: in vivo, Male Sprague-Dawley Rats; conditions: male, Sprague-Dawley, rat; for concentration at 1 h: oral, 300 mg/kg, 1 hour (in Example 2); for concentration at 1 h / concentration at 8 h: mean
Experimental: as §3

[12] = cortex, 150 mg/kg, mean, read-out: Cortex concentration
[13] = hippocampus, 150 mg/kg, mean, read-out: Hippocampus concentration
[14] = plasma, 150 mg/kg, mean, read-out: Plasma concentration
[15] = dose escalation 150 mg/kg to 750 mg/kg
[16] = cortex, read-out: Cortex concentration
[17] = hippocampus, read-out: Hippocampus concentration
[18] = plasma, read-out: Plasma concentration
[19] = serum, D-serine at 24 hr, Compound 100 at 4, 8, and 24 hours

[2H][C@@](N)(CO)C(=O)O [Compound 100, (2R)-2-amino-2-deutero-3-hydroxy-propanoic acid]
activity at the NMDA receptor (peak current and steady state current) [1]: indistinguishable | levels of biomarkers of nephrotoxicity (Male Sprague-Dawley Rats [2]): did not increase | concentration at 24 h ([3]; brain stem, perfused brain, read-out: brain stem concentration): 721 ng/g | concentration at 24 h ([3]; cerebellum, perfused brain, read-out: cerebellum concentration): 290 ng/g | concentration at 24 h ([3]; cortex, perfused brain, read-out: cortex concentration): 4660 ng/g | concentration at 24 h ([3]; plasma, read-out: plasma concentration): 880 ng/mL | AUC(0-inf) [4]: 21.5 µg·h/mL | Cmax [4]: 11400 ng/mL | Tmax [4]: 25 min | half-life [4]: 160 min | concentration at 4 h [5, 12]: 5070 ng/g | concentration at 8 h [5, 12]: 4040 ng/g | concentration at 24 h ([5]; cortex, 150 mg/kg, mean, 24 hr, read-out: Cortex concentration): 2420 ng/g | concentration at 4 h [5, 13]: 6160 ng/g | concentration at 8 h [5, 13]: 4340 ng/g | concentration at 24 h ([5]; hippocampus, 150 mg/kg, mean, 24 hr, read-out: Hippocampus concentration): 4200 ng/g | AUC(0-inf) ([5]; plasma): 383 µg·h/mL | Cmax ([5]; plasma): 186000 ng/mL | Tmax ([5]; plasma): 40 min | concentration at 4 h [5, 14]: 23300 ng/mL | concentration at 8 h [5, 14]: 2040 ng/mL | concentration at 24 h ([5]; plasma, 150 mg/kg, mean, 24 hr, read-out: Plasma concentration): 711 ng/mL | Hippocampus concentration ([5]; mean, 24 hr, 150 mg/kg): 4220 ng/g | changes in BUN or creatinine (rats): minimal changes | exposure as measured by AUC and Cmax, versus non-deuterated D-serine (rats; [15]): greater | gross signs of nephrotoxicity (rats; [15]): not | half-life ([6]; cortex, read-out: half-life (T1/2) in the cortex (converted)): ~48 h | half-life ([6]; plasma, read-out: plasma T1/2): < 12 h | concentration at 1 h [7, 16]: 754 ng/g | concentration at 6 h [7, 16]: 936 ng/g | concentration at 1 h [7, 17]: 674 ng/g | concentration at 6 h [7, 17]: 1380 ng/g | concentration at 1 h [7, 18]: 19200 ng/mL | concentration at 6 h [7, 18]: 1780 ng/mL

N[C@H](CO)C(=O)O [Non-deuterated D-Serine, D-serine]
activity at the NMDA receptor (peak current and steady state current) [1]: indistinguishable | Tmax ([8]; male, Sprague-Dawley, rat, po, 30 mg/kg, 30 mg/kg PO): 30 min | Cmax ([8]; male, Sprague-Dawley, rat, po, 30 mg/kg, 30 mg/kg PO, read-out: Cmax): 24300 ng/mL | Tmax ([8]; male, Sprague-Dawley, rat, po, 75 mg/kg, 75 mg/kg PO): 30 min | Cmax ([8]; male, Sprague-Dawley, rat, po, 75 mg/kg, 75 mg/kg PO, read-out: Cmax): 54300 ng/mL | Tmax ([8]; male, Sprague-Dawley, rat, po, 100 mg/kg, 100 mg/kg PO): 30 min | Cmax ([8]; male, Sprague-Dawley, rat, po, 100 mg/kg, 100 mg/kg PO, read-out: Cmax): 96100 ng/mL | Tmax ([8]; male, Sprague-Dawley, rat, po, 150 mg/kg, 150 mg/kg PO): 18 min | Cmax ([8]; male, Sprague-Dawley, rat, po, 150 mg/kg, 150 mg/kg PO, read-out: Cmax): 180000 ng/mL | Tmax ([8]; male, Sprague-Dawley, rat, po, 300 mg/kg, 300 mg/kg PO): 30 min | Cmax ([8]; male, Sprague-Dawley, rat, po, 300 mg/kg, 300 mg/kg PO, read-out: Cmax): 216000 ng/mL | Tmax ([8]; male, Sprague-Dawley, rat, po, 300 mg/kg, all doses 30, 75, 100, 150, and 300 mg/kg PO): 18 to 30 min | AUC(0-inf) ([8]; male, Sprague-Dawley, rat, 30 mg/kg PO): 50.6 µg·h/mL | AUC(0-inf) ([8]; male, Sprague-Dawley, rat, 75 mg/kg PO): 148 µg·h/mL | AUC(0-inf) ([8]; male, Sprague-Dawley, rat, 100 mg/kg PO): 246 µg·h/mL | AUC(0-inf) ([8]; male, Sprague-Dawley, rat, 150 mg/kg PO): 349 µg·h/mL | AUC(0-inf) ([8]; male, Sprague-Dawley, rat, 300 mg/kg PO): 911 µg·h/mL | Cmax ([8]; 300 mg/kg PO, 300 mg/kg): 261000 (32.3%) ng/mL | Blood urea nitrogen level (Male Sprague-Dawley Rats [9]): elevated | creatinine level (Male Sprague-Dawley Rats [9]): elevated | glucose in urine (Male Sprague-Dawley Rats [9]): presence of glucose was observed | levels of biomarkers of nephrotoxicity (Male Sprague-Dawley Rats [2]): caused an increase | blood urea nitrogen (BUN) level (Male Sprague-Dawley Rats [2]; serum, D-serine at 8 hr and 24 hr, Compound 100 at 4, 8, and 24 hours): Elevated levels | creatinine level (Male Sprague-Dawley Rats [2]; [19]): Elevated levels | gamma glutamyl transferase (GGT) level (Male Sprague-Dawley Rats [2]; [19]): Elevated levels | AUC(0-inf) [4]: 13.2 µg·h/mL | Cmax [4]: 8780 ng/mL | Tmax [4]: 25 min | half-life [4]: 106 min | AUC(0-inf) ([5]; plasma): 349 µg·h/mL | Cmax ([5]; plasma): 180000 ng/mL | Tmax ([5]; plasma): 20 min | creatine level (Male Sprague-Dawley Rats [10]): Elevated levels | gamma glutamyl transferase (GGT) level (Male Sprague-Dawley Rats [10]): Elevated levels | urea nitrogen level (Male Sprague-Dawley Rats [10]): Elevated levels | changes in BUN or creatinine (rats): increasingly elevated levels | gross signs of nephrotoxicity (rats; [15]): observed | concentration at 1 h [11, 16]: 754 ng/g | concentration at 8 h ([11]; cortex, 300 mg/kg PO, read-out: Cortex concentration): 11900 ng/g | concentration at 1 h [11, 17]: 674 ng/g | concentration at 8 h ([11]; hippocampus, 300 mg/kg PO, read-out: Hippocampus concentration): 17700 ng/g | concentration at 1 h [11, 18]: 19200 ng/mL | concentration at 8 h ([11]; plasma, 300 mg/kg PO, endogenous level subtracted, read-out: Plasma concentration): 11200 ng/mL | AUC(0-inf) ([11]; plasma, 300 mg/kg PO): 500 µg·h/mL | Cmax ([11]; plasma, 300 mg/kg PO): 268000 ng/mL | Tmax ([11]; plasma, 300 mg/kg PO): 30 min | half-life ([11]; plasma, 300 mg/kg PO): 218 min
